From US20130178472A1, “ARYLSULFONAMIDE PYRIDINE-PYRIDINONE DERIVATIVES, PREPARATION OF SAME, AND THERAPEUTIC USE THEREOF” (SANOFI, priority 2010, published 2013)
Structures can show the parent of a compound that is named as a salt.

Tests used:
[1] = biological target: T1, fusion protein Tel/PDGF-R beta (BaF3 Tel/PDGF cells) (Homo sapiens, UniProt P09619); assay: Inhibition of PDGF beta receptor tyrosine kinase activity: proliferation of BaF3 Tel/PDGF cells; type: cell-based, murine; conditions: 72 h incubation, viable cells by cellular ATP (CellTiter-Glo); read-out: IC50, concentration which inhibits 50% of the proliferation of the Baf3 tel/PDGF cells
T1 construct: the transmembrane and intracellular part of the PDGF-R beta receptor; N-terminal part of transcription factor Tel (ETV6, own knowledge: UniProt P41212), containing the oligomerization domain; expressed in transfected cells; host or cells: murine hematopoietic cell line BaF/3 (BaF3 Tel/PDGF); the other entry of the earlier key: ETV6 (P41212, Transcription factor ETV6)
From the text: The inhibitory activity on the PDGF receptor kinases is given by the concentration which inhibits 50% of the proliferation activity of Baf3 tel/PDGF cells respectively. The inhibitory activity on p70S6 kinase is given by the concentration which inhibits 50% of the phosphorylation of the peptide substrate derived from the S6 ribosomal protein (AKRRRLSSLRA, Upstate).
Measurement of the inhibition of the PDGF beta receptor (PDGF-Rβ) tyrosine kinase activity (Baf-3 tel/PDGFRβ):
This test consists in evaluating the effects of the compounds on the PDGF beta receptor tyrosine kinase activity.
The inhibitory effect of the compounds according to the invention toward the PDGF-R receptor tyrosine kinase activity was evaluated on the hematopoietic murine cell line BaF/3 transfected with a plasmid encoding the fusion protein Tel/PDGF-R beta. This fusion protein is found in chronic myelomonocytic myeloid leukemias (CMML). It comprises the N-terminal part of the transcription factor Tel and the transmembrane and intracellular part of the PDGF-R beta receptor. This fusion protein is present in dimerized form (presence of an oligomerization domain in the N-terminal part of Tel) and therefore leads to the constitutive activity of the PDGF-R beta kinase domain. This BaF3 Tel/PDGF line has been described in the literature several times and in particular in detail in the article by CARROLL, M. et al., PNAS, 1996, 93, 14845-14850, CARROLL, M. et al., Blood 2002, 99, 14845-14850.
The BaF3 Tel/PDGF cells are washed with phosphate buffer and inoculated in 96-well plates, at the density of 5×10^4 cells/ml ([…]), in RPMI 1640 containing 10% FCS, in the presence or absence of the compounds to be tested. After 72 h of incubation, the viable cells are quantified by measuring the cellular ATP using the kit CellTiter-Glo®(Promega, Cat G7571). The cells are treated according to the instructions given by the kit supplier and the luminescence is measured with the aid of a Luminoskan (Ascent, Labsystem) with the following parameters: measurement: single; integration time: 1000 ms, lag time: 5 s.
It is thus apparent that the compounds according to the invention have an inhibitory activity on the PDGF-R beta tyrosine kinase activity. This activity is given by the concentration which inhibits 50% of the proliferation of the Baf3 tel/PDGF cells (IC50).

T1 sequence (P09619 with tags, fused parts or gaps): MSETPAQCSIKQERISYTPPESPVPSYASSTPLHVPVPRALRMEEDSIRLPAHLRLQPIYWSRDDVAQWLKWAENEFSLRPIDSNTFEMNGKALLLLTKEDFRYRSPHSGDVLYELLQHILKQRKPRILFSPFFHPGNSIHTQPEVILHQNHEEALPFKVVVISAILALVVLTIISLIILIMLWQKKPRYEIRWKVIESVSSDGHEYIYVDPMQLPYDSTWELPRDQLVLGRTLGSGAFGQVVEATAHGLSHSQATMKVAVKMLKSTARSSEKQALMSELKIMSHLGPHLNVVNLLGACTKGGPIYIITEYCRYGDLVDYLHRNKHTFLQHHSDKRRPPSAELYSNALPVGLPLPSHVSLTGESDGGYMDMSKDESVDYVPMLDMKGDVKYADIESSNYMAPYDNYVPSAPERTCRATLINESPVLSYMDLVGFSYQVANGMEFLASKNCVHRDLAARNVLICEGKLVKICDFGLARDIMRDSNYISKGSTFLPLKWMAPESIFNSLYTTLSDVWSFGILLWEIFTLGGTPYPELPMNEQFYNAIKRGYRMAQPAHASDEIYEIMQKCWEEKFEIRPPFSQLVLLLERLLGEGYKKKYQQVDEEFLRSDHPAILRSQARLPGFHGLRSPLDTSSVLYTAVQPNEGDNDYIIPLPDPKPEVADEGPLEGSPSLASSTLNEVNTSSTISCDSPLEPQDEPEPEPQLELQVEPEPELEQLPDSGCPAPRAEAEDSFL

Row | SMILES | melting point | IC50 [1]
1 | CCn1c(N)c(C(=O)NC)c(=O)c2ccc(-c3ccc(NS(=O)(=O)Cc4cccnc4)c(F)c3)nc21 (as salt: HCl) [compound No. 1, 2-amino-1-ethyl-7-(3-fluoro-4-{[(pyridin-3-ylmethyl)sulfonyl]amino}phenyl)-N-methyl-4-oxo-1,4-dihydro-1,8-naphthyridine-3-carboxamide] | 220 to 223 °C | 
2 | CCn1c(N)c(C(=O)NC)c(=O)c2ccc(-c3ccc(NS(=O)(=O)CCN(C)C)c(F)c3)nc21 (as salt: HCl) [compound No. 4, 2-amino-7-[4-({[2-(dimethylamino)ethyl]sulfonyl}amino)-3-fluorophenyl]-1-ethyl-N-methyl-4-oxo-1,4-dihydro-1,8-naphthyridine-3-carboxamide] | 268 to 270 °C | 
3 | CCn1c(N)c(C(=O)NC)c(=O)c2ccc(-c3ccc(NS(=O)(=O)Cc4cccc(N)c4)c(F)c3)nc21 (as salt: HCl) [compound No. 5, 2-amino-7-(4-{[(3-aminobenzyl)sulfonyl]amino}-3-fluorophenyl)-1-ethyl-N-methyl-4-oxo-1,4-dihydro-1,8-naphthyridine-3-carboxamide] | > 260 °C | 
4 | C=CS(=O)(=O)Nc1ccc(-c2ccc3c(=O)c(C(=O)NC)c(N)n(CC)c3n2)cc1F [compound No. 3, 2-amino-7-{4-[(ethenylsulfonyl)amino]-3-fluorophenyl}-1-ethyl-N-methyl-4-oxo-1,4-dihydro-1,8-naphthyridine-3-carboxamide] | > 260 °C | 
5 | CCCCS(=O)(=O)Nc1ccc(-c2ccc3c(=O)c(C(=O)NC)c(N)n(CC)c3n2)cc1F [compound No. 7, 2-amino-7-{4-[(butylsulfonyl)amino]-3-fluorophenyl}-1-ethyl-N-methyl-4-oxo-1,4-dihydro-1,8-naphthyridine-3-carboxamide] | 165 to 167 °C | 
6 | CCn1c(N)c(C(=O)NC)c(=O)c2ccc(-c3ccc(NS(=O)(=O)c4cc(Cl)ccc4Cl)cc3Cl)nc21 [compound No. 12, 2-amino-7-(2-chloro-4-{[(2,5-dichlorophenyl)sulfonyl]amino}phenyl)-1-ethyl-N-methyl-4-oxo-1,4-dihydro-1,8-naphthyridine-3-carboxamide] | 323 °C | 
7 | CCn1c(N)c(C(=O)NC)c(=O)c2ccc(-c3ccc(NS(=O)(=O)c4cccc(Cl)c4Cl)cc3Cl)nc21 [compound No. 13, 2-amino-7-(2-chloro-4-{[(2,3-dichlorophenyl)sulfonyl]amino}phenyl)-1-ethyl-N-methyl-4-oxo-1,4-dihydro-1,8-naphthyridine-3-carboxamide] | 239 °C | 
8 | CCn1c(N)c(C(=O)NC)c(=O)c2ccc(-c3ccc(NS(=O)(=O)c4cccc(Cl)c4Cl)c(C)c3)nc21 [compound No. 15, 2-amino-7-(4-{[(2,3-dichlorophenyl)sulfonyl]amino}-3-methylphenyl)-1-ethyl-N-methyl-4-oxo-1,4-dihydro-1,8-naphthyridine-3-carboxamide] | 299 °C | 
9 | CCn1c(N)c(C(=O)NC)c(=O)c2ccc(-c3ccc(NS(C)(=O)=O)cc3)nc21 [compound No. 16, 2-amino-1-ethyl-N-methyl-7-{4-[(methylsulfonyl)amino]phenyl}-4-oxo-1,4-dihydro-1,8-naphthyridine-3-carboxamide] | > 300 °C | 
10 | CCn1c(N)c(C(=O)NC)c(=O)c2ccc(-c3ccc(NS(=O)(=O)c4cccc(Cl)c4Cl)cc3)nc21 [compound No. 17, 2-amino-7-(4-{[(2,3-dichlorophenyl)sulfonyl]amino}phenyl)-1-ethyl-N-methyl-4-oxo-1,4-dihydro-1,8-naphthyridine-3-carboxamide] | 210 °C | 
11 | CCn1c(N)c(C(=O)NC)c(=O)c2ccc(-c3ccc(NS(=O)(=O)c4ccccc4Cl)cc3)nc21 [compound No. 19, 2-amino-7-(4-{[(2-chlorophenyl)sulfonyl]amino}phenyl)-1-ethyl-N-methyl-4-oxo-1,4-dihydro-1,8-naphthyridine-3-carboxamide] | > 260 °C | 

Continued, in another order:

Row | melting point | SMILES | IC50 [1]
12 | > 300 °C | CCn1c(N)c(C(=O)NC)c(=O)c2ccc(-c3ccc(NS(=O)(=O)c4cn(C)cn4)c(F)c3)nc21 (as salt: HCl) [compound No. 6, 2-amino-1-ethyl-7-(3-fluoro-4-{[(1-methyl-1H-imidazol-4-yl)sulfonyl]amino}phenyl)-N-methyl-4-oxo-1,4-dihydro-1,8-naphthyridine-3-carboxamide] | 
13 | > 260 °C | CCn1c(N)c(C(=O)NC)c(=O)c2ccc(-c3ccc(NS(=O)(=O)c4ccc(N5CCOCC5)nc4)c(F)c3)nc21 (as salt: HCl) [compound No. 26, 2-amino-1-ethyl-7-[3-fluoro-4-({[6-(morpholin-4-yl)pyridin-3-yl]sulfonyl}amino)phenyl]-N-methyl-4-oxo-1,4-dihydro-1,8-naphthyridine-3-carboxamide] | 
14 | 260 °C | CCn1c(N)c(C(=O)NC)c(=O)c2ccc(-c3ccc(NS(=O)(=O)Cc4ccccn4)c(F)c3)nc21 (as salt: HCl) [compound No. 27, 2-amino-1-ethyl-7-(3-fluoro-4-{[(pyridin-2-ylmethyl)sulfonyl]amino}phenyl)-N-methyl-4-oxo-1,4-dihydro-1,8-naphthyridine-3-carboxamide] | 
15 | 256 °C | CCn1c(N)c(C(=O)NC)c(=O)c2ccc(-c3ccc(NS(=O)(=O)c4cccc(F)c4)c(F)c3)nc21 [compound No. 2, 2-amino-1-ethyl-7-(3-fluoro-4-{[(3-fluorophenyl)sulfonyl]amino}phenyl)-N-methyl-4-oxo-1,4-dihydro-1,8-naphthyridine-3-carboxamide] | 36 nM
16 | 321 °C | CCn1c(N)c(C(=O)NC)c(=O)c2ccc(-c3ccc(NS(=O)(=O)c4c(Cl)cccc4Cl)c(F)c3)nc21 [compound No. 11, 2-amino-7-(4-{[(2,6-dichlorophenyl)sulfonyl]amino}-3-fluorophenyl)-1-ethyl-N-methyl-4-oxo-1,4-dihydro-1,8-naphthyridine-3-carboxamide] | 
17 | > 260 °C | CCn1c(N)c(C(=O)NC)c(=O)c2ccc(-c3ccc(NS(=O)(=O)c4ccccc4F)c(F)c3)nc21 [compound No. 20, 2-amino-1-ethyl-7-(3-fluoro-4-{[(2-fluorophenyl)sulfonyl]amino}phenyl)-N-methyl-4-oxo-1,4-dihydro-1,8-naphthyridine-3-carboxamide] | 280 nM
18 | > 260 °C | CCn1c(N)c(C(=O)NC)c(=O)c2ccc(-c3ccc(NS(=O)(=O)c4ccc(Cl)cc4)c(F)c3)nc21 [compound No. 21, 2-amino-7-(4-{[(4-chlorophenyl)sulfonyl]amino}-3-fluorophenyl)-1-ethyl-N-methyl-4-oxo-1,4-dihydro-1,8-naphthyridine-3-carboxamide] | 
19 | > 260 °C | CCn1c(N)c(C(=O)NC)c(=O)c2ccc(-c3ccc(NS(=O)(=O)c4cccc(Cl)c4)c(F)c3)nc21 [compound No. 22, 2-amino-7-(4-{[(3-chlorophenyl)sulfonyl]amino}-3-fluorophenyl)-1-ethyl-N-methyl-4-oxo-1,4-dihydro-1,8-naphthyridine-3-carboxamide] | 
20 | > 260 °C | CCn1c(N)c(C(=O)NC)c(=O)c2ccc(-c3ccc(NS(=O)(=O)c4ccc(F)c(F)c4)c(F)c3)nc21 [compound No. 23, 2-amino-7-(4-{[(3,4-difluorophenyl)sulfonyl]amino}-3-fluorophenyl)-1-ethyl-N-methyl-4-oxo-1,4-dihydro-1,8-naphthyridine-3-carboxamide] | 
21 | > 260 °C | CCn1c(N)c(C(=O)NC)c(=O)c2ccc(-c3ccc(NS(=O)(=O)c4ccc(F)cc4)c(F)c3)nc21 [compound No. 24, 2-amino-1-ethyl-7-(3-fluoro-4-{[(4-fluorophenyl)sulfonyl]amino}phenyl)-N-methyl-4-oxo-1,4-dihydro-1,8-naphthyridine-3-carboxamide] | 24 nM
22 | > 260 °C | CCn1c(N)c(C(=O)NC)c(=O)c2ccc(-c3ccc(NS(=O)(=O)c4cccc(OC)c4)c(F)c3)nc21 [compound No. 25, 2-amino-1-ethyl-7-(3-fluoro-4-{[(3-methoxyphenyl)sulfonyl]amino}phenyl)-N-methyl-4-oxo-1,4-dihydro-1,8-naphthyridine-3-carboxamide] | 
